Assay results taken from US10246456B2, “IRAK4 inhibiting agents” (BIOGEN MA INC., priority 2014, dated 2019).

Biological target: IRAK4 (Homo sapiens (Human), UniProt Q9NWZ3)
Assay: IRAK-4 AlphaScreen biochemical kinase assay
Conditions: 1 nM IRAK4, 1 mM ATP, 3.5 h at RT
In short: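 AlphaScreen read-out: streptavidin beads bind the biotinylated peptide and protein A beads bind the anti-phosphothreonine antibody, so energy transfer reports phosphorylation of the peptide. The kinase is human IRAK-4.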

Sequence of IRAK4 (Q9NWZ3 whole entry, species assumed): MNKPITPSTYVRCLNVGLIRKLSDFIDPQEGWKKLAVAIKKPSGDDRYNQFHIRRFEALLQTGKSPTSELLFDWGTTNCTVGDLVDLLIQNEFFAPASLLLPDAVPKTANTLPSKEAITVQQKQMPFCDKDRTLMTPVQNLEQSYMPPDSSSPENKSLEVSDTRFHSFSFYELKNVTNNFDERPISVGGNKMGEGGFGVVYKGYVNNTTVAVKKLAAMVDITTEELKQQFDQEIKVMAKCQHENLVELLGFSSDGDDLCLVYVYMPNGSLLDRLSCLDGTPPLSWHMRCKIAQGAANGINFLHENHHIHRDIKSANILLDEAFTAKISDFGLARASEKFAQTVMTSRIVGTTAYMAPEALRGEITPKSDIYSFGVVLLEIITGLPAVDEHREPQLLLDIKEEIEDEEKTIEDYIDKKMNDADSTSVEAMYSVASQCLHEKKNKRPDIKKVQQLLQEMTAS

| Structure (SMILES) | IC50 |
| --- | --- |
| Cc1cc(-c2ccc3cnn(-c4cccc(C)n4)c3c2)nc(C(C)N)c1 (stereo not shown) [Example 124, 1-(4-methyl-6-(1-(6-methylpyridin-2-yl)-1H-indazol-6-yl)pyridin-2-yl)ethanamine] | < 100 nM |
| COCCOc1cc(-c2cccc([C@@H](N)CCCO)n2)cc2c1cnn2-c1cccc(CO)n1 [Example 484, (S)-4-amino-4-(6-(1-(6-(hydroxymethyl)pyridin-2-yl)-4-(2-methoxyethoxy)-1H-indazol-6-yl)pyridin-2-yl)butan-1-ol] | < 100 nM |
| NC(c1cccc(-c2ccc3cnn(-c4cccc(C(F)(F)F)n4)c3c2)n1)C1CC1 (stereo not shown) [Example 128, cyclopropyl(6-(1-(6-(trifluoromethyl)pyridin-2-yl)-1H-indazol-6-yl)pyridin-2-yl)methanamine] | < 100 nM |
| CNC(=O)c1cc(-c2cccc(C(C)N)n2)cc2c1cnn2-c1cccc(C)n1 (stereo not shown) [Example 115, 6-(6-(1-aminoethyl)pyridin-2-yl)-N-methyl-1-(6-methylpyridin-2-yl)-1H-indazole-4-carboxamide] | < 100 nM |
| CC(N)c1cccc(-c2cc(CO)c3cnn(-c4cccc(C(F)(F)F)n4)c3c2)n1 (stereo not shown) [Example 57, (6-(6-(1-aminoethyl)pyridin-2-yl)-1-(6-(trifluoromethyl)pyridin-2-yl)-1H-indazol-4-yl)methanol] | < 100 nM |
| Cc1cccc(-n2ncc3ccc(-c4cccc(C(C)N(C)C)n4)cc32)n1 (stereo not shown) [Example 232, N,N-dimethyl-1-(6-(1-(6-methylpyridin-2-yl)-1H-indazol-6-yl)pyridin-2-yl)ethanamine] | 100 to 1000 nM |
| CCC[C@H](N)c1cccc(-c2ccc3cnn(-c4ccnc(CO)c4)c3c2)n1 [Example 400, (S)-(4-(6-(6-(1-aminobutyl)pyridin-2-yl)-1H-indazol-1-yl)pyridin-2-yl)methanol] | 100 to 1000 nM |
| Cc1cccc(-n2ncc3ccc(-c4nc(CN)cs4)cc32)n1 [Example 139, (2-(1-(6-methylpyridin-2-yl)-1H-indazol-6-yl)thiazol-4-yl)methanamine] | 100 to 1000 nM |
| CC(N)c1cccc(-c2ccc3cnn(-c4cccc(C(C)O)n4)c3c2)n1 (stereo not shown) [Example 284, 1-(6-(6-(6-(1-aminoethyl)pyridin-2-yl)-1H-indazol-1-yl)pyridin-2-yl)ethanol] | < 100 nM |
| C/C(=N/O)c1cccc(-c2ccc3cnc(-c4cccc(C(F)(F)F)n4)n3c2)n1 [Example 224, (Z)-1-(6-(3-(6-(trifluoromethyl)pyridin-2-yl)imidazo[1,5-a]pyridin-6-yl)pyridin-2-yl)ethanone oxime] | > 10000 nM |
| COCCOc1cc(-c2cccc(C3(N)CCC3)n2)cc2c1cnn2-c1cccc(CO)n1 [Example 467, (6-(6-(6-(1-aminocyclobutyl)pyridin-2-yl)-4-(2-methoxyethoxy)-1H-indazol-1-yl)pyridin-2-yl)methanol] | < 100 nM |
| Cc1cccc(-c2ncc3ccc(-c4cccc(C(C)N)n4)cn23)n1 (stereo not shown) [Example 99, 1-(6-(3-(6-methylpyridin-2-yl)imidazo[1,5-a]pyridin-6-yl)pyridin-2-yl)ethanamine] | < 100 nM |
| CCC[C@H](N)c1cccc(-c2cc(C(C)OC)c3cnn(-c4cccc(CO)n4)c3c2)n1 (stereo partly drawn) [Example 569, (6-(6-(6-((S)-1-aminobutyl)pyridin-2-yl)-4-(1-methoxyethyl)-1H-indazol-1-yl)pyridin-2-yl)methanol] | < 100 nM |
| CCC[C@@H](N)c1nccc(-c2ccc3cnn(-c4cccc(CO)n4)c3c2)n1 [Example 406, (R)-(6-(6-(2-(1-aminobutyl)pyrimidin-4-yl)-1H-indazol-1-yl)pyridin-2-yl)methanol] | < 100 nM |
| CC(N)c1cccc(-c2ccc3cnn(-c4cccc(C(C)(C)S(C)(=O)=O)n4)c3c2)n1 (stereo not shown) [Example 289, 1-(6-(1-(6-(2-(methylsulfonyl)propan-2-yl)pyridin-2-yl)-1H-indazol-6-yl)pyridin-2-yl)ethanamine] | 1000 to 10000 nM |
| CC(=O)c1cccc(-c2ccc3cnn(-c4nc(C)cs4)c3c2)n1 [Example 239] | > 10000 nM |
